This is an account of results in patent US10183950B2, “Thienopyrimidine inhibitors of atypical protein kinase C” (Cancer Research Technology Limited, priority 2011, dated 2019).

Where two headings read alike, the source gives them in different places. Bounds are passed on as bounds.

The assay addresses T1, kinase-domain human PKCι (Homo sapiens, UniProt P41743).
T1 construct: Recombinant, kinase-domain human PKCι is expressed and purified in-house; made in house
T1 sequence (P41743 254-522 limits assumed): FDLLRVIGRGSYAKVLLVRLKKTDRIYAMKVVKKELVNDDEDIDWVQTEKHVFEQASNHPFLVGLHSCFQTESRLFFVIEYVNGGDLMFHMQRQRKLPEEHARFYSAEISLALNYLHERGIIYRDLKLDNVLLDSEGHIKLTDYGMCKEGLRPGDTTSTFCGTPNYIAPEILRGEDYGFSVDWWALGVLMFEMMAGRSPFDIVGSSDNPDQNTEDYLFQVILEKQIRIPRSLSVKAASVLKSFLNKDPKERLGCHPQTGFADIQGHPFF
Nature of the assay: PKCι IC50 IMAP fluorescence polarisation assay, kinase-domain enzyme. It is filed as biochemical. Conditions: kinase domain PKCi at 2 μM ATP.

The mark [1] stands for this setting: read-out: IC50 in IMAP assay against kinase domain PKCi (Activity).
The mark [2] stands for this setting: read-out: IC50 in IMAP assay against kinase domain PKCi.

As for `C[C@H](N)CNc1nc(-c2cn[nH]c2)nc2sc3c(c12)CCCC3` [compound 187, (S)-N*1*-[2-(1H-Pyrazol-4-yl)-5,6,7,8-tetrahydro-benzo[4,5]thieno[2,3-d]pyrimidin-4-yl]-propane-1,2-diamine], the IC50 under setting [1] was 0.1 to 1 µM.

On to `C[C@@H](N)CNc1nc(-c2cn[nH]c2)nc2sc3c(c12)CCCC3` [compound 188, (R)-N*1*-[2-(1H-Pyrazol-4-yl)-5,6,7,8-tetrahydro-benzo[4,5]thieno[2,3-d]pyrimidin-4-yl]-propane-1,2-diamine], for which the IC50 under setting [1] lay in the range of 1 to 10 µM.

`c1n[nH]cc1-c1nc(N[C@@H]2CCNC2)c2c3c(sc2n1)CCCC3` [compound 189, [2-(1H-Pyrazol-4-yl)-5,6,7,8-tetrahydro-benzo[4,5]thieno[2,3-d]pyrimidin-4-yl]-(R)-pyrrolidin-3-yl-amine]: the IC50 under setting [1] lay in the range of 0.1 to 1 µM.

Consider `Cc1n[nH]c(C)c1-c1nc(N2CCNCC2)c2c3c(sc2n1)CCCC3` [compound 190, 2-(3,5-Dimethyl-1H-pyrazol-4-yl)-4-piperazin-1-yl-5,6,7,8-tetrahydro-benzo[4,5]thieno[2,3-d]pyrimidine], for which the IC50 under setting [1] was 0.1 to 1 µM.

As to `Cc1n[nH]c(C)c1-c1nc(N2CCCNCC2)c2c3c(sc2n1)CCCC3` [compound 191, 4-[1,4]Diazepan-1-yl-2-(3,5-dimethyl-1H-pyrazol-4-yl)-5,6,7,8-tetrahydro-benzo[4,5]thieno[2,3-d]pyrimidine], the IC50 under setting [1] is 0.1 to 1 µM.

Regarding `Cc1n[nH]c(C)c1-c1nc(NC[C@H](C)N)c2c3c(sc2n1)CCCC3` [compound 192, (S)-N*1*-[2-(3,5-Dimethyl-1H-pyrazol-4-yl)-5,6,7,8-tetrahydro-benzo[4,5]thieno[2,3-d]pyrimidin-4-yl]-propane-1,2-diamine], the half-inhibitory concentration (IC50) under setting [1] was 1 to 10 µM.

With `Cc1n[nH]c(C)c1-c1nc(NC[C@@H](C)N)c2c3c(sc2n1)CCCC3` [compound 193, (R)-N*1*-[2-(3,5-Dimethyl-1H-pyrazol-4-yl)-5,6,7,8-tetrahydro-benzo[4,5]thieno[2,3-d]pyrimidin-4-yl]-propane-1,2-diamine], the IC50 under setting [1] fell in the range of 10 to 40 µM.

With `Cc1n[nH]c(C)c1-c1nc(N[C@@H]2CCNC2)c2c3c(sc2n1)CCCC3` [compound 194, [2-(3,5-Dimethyl-1H-pyrazol-4-yl)-5,6,7,8-tetrahydro-benzo[4,5]thieno[2,3-d]pyrimidin-4-yl]-(R)-pyrrolidin-3-yl-amine], the half-inhibitory concentration (IC50) under setting [1] was 0.1 to 1 µM.

On to `c1ccc(-c2cc3nc(-c4ccncc4)nc(N4CCNCC4)c3s2)cc1` [compound 301, 6-phenyl-4-piperazin-1-yl-2-pyridin-4-yl-thieno[3,2-d]pyrimidine], for which the IC50 under setting [1] is 1 to 10 µM.

As for `Cc1csc2c(NC[C@@H](N)Cc3ccccc3)nc(-c3ccncc3)nc12` [compound 302], the half-maximal inhibitory concentration (IC50) under setting [1] is under 0.1 µM.

On to `C[C@H](N)CNc1nc(-c2ccncc2)nc2cc(C(C)(C)C)sc12` [compound 307, (S)-N*1*-(6-tert-Butyl-2-pyridin-4-yl-thieno[3,2-d]pyrimidin-4-yl)-propane-1,2-diamine], for which the IC50 under setting [2] lay in the range of 10 to 40 µM.

`C[C@@H](N)CNc1nc(-c2ccncc2)nc2cc(C(C)(C)C)sc12` [compound 308, (R)-N*1*-(6-tert-Butyl-2-pyridin-4-yl-thieno[3,2-d]pyrimidin-4-yl)-propane-1,2-diamine]: the half-maximal inhibitory concentration (IC50) under setting [2] lay within 10 to 40 µM.

Turning to `CC(C)(C)c1cc2nc(-c3ccncc3)nc(NCCN)c2s1` [compound 311, N*1*-(6-tert-Butyl-2-pyridin-4-yl-thieno[3,2-d]pyrimidin-4-yl)-ethane-1,2-diamine], under setting [2], the IC50 lay within 10 to 40 µM.

With `Cc1csc2c(N[C@@H]3CCNC3)nc(-c3ccncc3)nc12` [compound 312, (7-Methyl-2-pyridin-4-yl-thieno[3,2-d]pyrimidin-4-yl)-(R)-pyrrolidin-3-yl-amine], the IC50 under setting [2] was 1 to 10 µM.

Consider `NCCNc1nc(-c2ccncc2)nc2cc(-c3ccccc3)sc12` [compound 313, N*1*-(6-Phenyl-2-pyridin-4-yl-thieno[3,2-d]pyrimidin-4-yl)-ethane-1,2-diamine], for which, under setting [2], the IC50 lay within 10 to 40 µM.

As to `CC(C)(C)c1ccc(-c2cc3nc(-c4ccncc4)nc(N4CCCNCC4)c3s2)cc1` [compound 356, 6-(4-tert-butyl-phenyl)-4-[1,4]diazepan-1-yl-2-pyridin-4-yl-thieno[3,2-d]pyrimidine], the IC50 under setting [2] fell in the range of 10 to 40 µM.

`C[C@@H](N)CNc1nc(-c2ccncc2)nc2cc(-c3ccc(C(C)(C)C)cc3)sc12` [compound 358, (R)-N*1*-[6-(4-tert-Butyl-phenyl)-2-pyridin-4-yl-thieno[3,2-d]pyrimidin-4-yl]-propane-1,2-diamine]: the IC50 under setting [2] lay within 10 to 40 µM.

Take `C[C@H](N)CNc1nc(-c2ccncc2)nc2cc(-c3ccc(C(C)(C)C)cc3)sc12` [compound 359, (S)-N*1*-[6-(4-tert-Butyl-phenyl)-2-pyridin-4-yl-thieno[3,2-d]pyrimidin-4-yl]-propane-1,2-diamine]: the IC50 under setting [2] is 10 to 40 µM.

`CC(C)(C)c1ccc(-c2cc3nc(-c4ccncc4)nc(NCCN)c3s2)cc1` [compound 360, N*1*-[6-(4-tert-Butyl-phenyl)-2-pyridin-4-yl-thieno[3,2-d]pyrimidin-4-yl]-ethane-1,2-diamine]: the IC50 under setting [2] is 10 to 40 µM.

For `Cc1csc2c(NC[C@H](C)N)nc(-c3ccncc3)nc12` [compound 361, (S)-N*1*-(7-Methyl-2-pyridin-4-yl-thieno[3,2-d]pyrimidin-4-yl)-propane-1,2-diamine], under setting [2], the IC50 was in the range of 0.1 to 1 µM.

For the compound `Cc1csc2c(N3CCCNCC3)nc(-c3ccncc3)nc12` [compound 362, 4-[1,4]Diazepan-1-yl-7-methyl-2-pyridin-4-yl-thieno[3,2-d]pyrimidine], the half-maximal inhibitory concentration (IC50) under setting [2] was in the range of 0.1 to 1 µM.

On to `Cc1csc2c(N3CCNCC3)nc(-c3ccncc3)nc12` [compound 363, 7-Methyl-4-piperazin-1-yl-2-pyridin-4-yl-thieno[3,2-d]pyrimidine], for which, under setting [2], the IC50 lay in the range of 0.1 to 1 µM.

Take `Cc1csc2c(N[C@H]3CCNC3)nc(-c3ccncc3)nc12` [compound 364, (7-Methyl-2-pyridin-4-yl-thieno[3,2-d]pyrimidin-4-yl)-(S)-pyrrolidin-3-yl-amine]: under setting [2], the half-maximal inhibitory concentration (IC50) was in the range of 1 to 10 µM.

`Cc1csc2c(N(C)CCN)nc(-c3ccncc3)nc12` [compound 365, N*1*-Methyl-N*1*-(7-methyl-2-pyridin-4-yl-thieno[3,2-d]pyrimidin-4-yl)-ethane-1,2-diamine]: the IC50 under setting [2] lay within 1 to 10 µM.

For `C[C@@H](N)CNc1nc(-c2ccncc2)nc2cc(-c3ccccc3)sc12` [compound 366, (R)-N*1*-(6-Phenyl-2-pyridin-4-yl-thieno[3,2-d]pyrimidin-4-yl)-propane-1,2-diamine], the half-inhibitory concentration (IC50) under setting [2] lay in the range of 10 to 40 µM.

In the case of `C[C@H](N)CNc1nc(-c2ccncc2)nc2cc(-c3ccccc3)sc12` [compound 367, (S)-N*1*-(6-Phenyl-2-pyridin-4-yl-thieno[3,2-d]pyrimidin-4-yl)-propane-1,2-diamine], the IC50 under setting [2] is 10 to 40 µM.

`c1ccc(-c2cc3nc(-c4ccncc4)nc(N4CCCNCC4)c3s2)cc1` [compound 368, 4-[1,4]Diazepan-1-yl-6-phenyl-2-pyridin-4-yl-thieno[3,2-d]pyrimidine]: the IC50 under setting [2] lay in the range of 1 to 10 µM.

Turning to `Cc1csc2c(NC[C@@H](C)N)nc(-c3ccncc3)nc12` [compound 369, (R)-N*1*-(7-Methyl-2-pyridin-4-yl-thieno[3,2-d]pyrimidin-4-yl)-propane-1,2-diamine], the IC50 under setting [2] lay within 1 to 10 µM.
